The record followed here is BindingDB's records for doi:10.1016/j.bmcl.2005.01.005 (East China Normal University, 2022).

Test [1] deals with Potassium voltage-gated channel subfamily H member 2 (Homo sapiens, UniProt Q12809). Briefly: Inhibition of hERG expressed in CHO cells Qpatch-clamp electrophysiology assay.
The target in test [2] is Polyketide synthase Pks13 (Mycobacterium tuberculosis (strain ATCC 25618 / H37Rv), UniProt I6X8D2). In words: Inhibition of Mycobacterium tuberculosis Pks13-TE expressed in Escherichia coli BL21(DE3) pLysS.
Polyketide synthase Pks13, sequence (I6X8D2 whole entry): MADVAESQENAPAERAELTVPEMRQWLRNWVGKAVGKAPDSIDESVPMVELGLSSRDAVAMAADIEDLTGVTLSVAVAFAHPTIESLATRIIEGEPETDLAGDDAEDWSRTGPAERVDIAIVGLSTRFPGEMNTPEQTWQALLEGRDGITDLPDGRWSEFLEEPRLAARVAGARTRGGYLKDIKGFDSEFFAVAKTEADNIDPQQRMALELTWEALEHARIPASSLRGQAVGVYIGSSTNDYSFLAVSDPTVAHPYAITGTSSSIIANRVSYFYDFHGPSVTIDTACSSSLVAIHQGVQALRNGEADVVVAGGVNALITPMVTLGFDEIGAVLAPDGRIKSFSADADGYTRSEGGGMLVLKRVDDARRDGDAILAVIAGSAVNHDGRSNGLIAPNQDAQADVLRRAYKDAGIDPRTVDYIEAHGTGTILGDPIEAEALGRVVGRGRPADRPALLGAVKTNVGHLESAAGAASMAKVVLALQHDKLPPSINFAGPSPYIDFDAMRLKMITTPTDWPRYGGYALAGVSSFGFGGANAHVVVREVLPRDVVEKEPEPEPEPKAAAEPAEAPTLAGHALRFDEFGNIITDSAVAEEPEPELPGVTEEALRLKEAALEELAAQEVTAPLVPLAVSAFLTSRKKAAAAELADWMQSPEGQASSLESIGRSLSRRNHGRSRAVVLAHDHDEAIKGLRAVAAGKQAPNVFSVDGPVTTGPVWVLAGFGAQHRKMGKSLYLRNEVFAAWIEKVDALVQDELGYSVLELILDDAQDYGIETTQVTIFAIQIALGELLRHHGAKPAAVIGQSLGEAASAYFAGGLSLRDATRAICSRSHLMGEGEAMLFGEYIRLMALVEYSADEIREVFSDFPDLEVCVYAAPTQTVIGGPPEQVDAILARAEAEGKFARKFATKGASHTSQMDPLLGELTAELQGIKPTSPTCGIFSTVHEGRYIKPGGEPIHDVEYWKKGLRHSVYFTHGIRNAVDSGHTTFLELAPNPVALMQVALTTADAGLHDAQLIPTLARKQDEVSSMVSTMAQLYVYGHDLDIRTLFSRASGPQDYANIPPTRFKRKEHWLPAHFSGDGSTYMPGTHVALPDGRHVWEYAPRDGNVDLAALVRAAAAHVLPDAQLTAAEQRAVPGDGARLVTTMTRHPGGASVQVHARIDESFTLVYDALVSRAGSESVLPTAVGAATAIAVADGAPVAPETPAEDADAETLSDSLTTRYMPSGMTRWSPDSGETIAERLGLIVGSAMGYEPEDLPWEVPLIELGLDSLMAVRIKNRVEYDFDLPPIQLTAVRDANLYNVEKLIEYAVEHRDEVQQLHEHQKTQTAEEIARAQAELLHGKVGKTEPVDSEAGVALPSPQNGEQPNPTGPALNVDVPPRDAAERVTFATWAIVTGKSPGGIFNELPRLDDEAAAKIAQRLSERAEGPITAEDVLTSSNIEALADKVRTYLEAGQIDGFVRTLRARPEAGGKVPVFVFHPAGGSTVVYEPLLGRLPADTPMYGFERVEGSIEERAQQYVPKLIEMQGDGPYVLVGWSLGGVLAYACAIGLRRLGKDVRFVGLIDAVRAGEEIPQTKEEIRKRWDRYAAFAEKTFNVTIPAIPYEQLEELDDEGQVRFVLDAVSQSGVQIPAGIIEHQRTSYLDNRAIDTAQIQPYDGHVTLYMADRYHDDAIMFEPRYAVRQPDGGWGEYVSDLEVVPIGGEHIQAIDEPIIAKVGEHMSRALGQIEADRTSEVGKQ

Potassium voltage-gated channel subfamily H member 2, sequence (Q12809 whole entry): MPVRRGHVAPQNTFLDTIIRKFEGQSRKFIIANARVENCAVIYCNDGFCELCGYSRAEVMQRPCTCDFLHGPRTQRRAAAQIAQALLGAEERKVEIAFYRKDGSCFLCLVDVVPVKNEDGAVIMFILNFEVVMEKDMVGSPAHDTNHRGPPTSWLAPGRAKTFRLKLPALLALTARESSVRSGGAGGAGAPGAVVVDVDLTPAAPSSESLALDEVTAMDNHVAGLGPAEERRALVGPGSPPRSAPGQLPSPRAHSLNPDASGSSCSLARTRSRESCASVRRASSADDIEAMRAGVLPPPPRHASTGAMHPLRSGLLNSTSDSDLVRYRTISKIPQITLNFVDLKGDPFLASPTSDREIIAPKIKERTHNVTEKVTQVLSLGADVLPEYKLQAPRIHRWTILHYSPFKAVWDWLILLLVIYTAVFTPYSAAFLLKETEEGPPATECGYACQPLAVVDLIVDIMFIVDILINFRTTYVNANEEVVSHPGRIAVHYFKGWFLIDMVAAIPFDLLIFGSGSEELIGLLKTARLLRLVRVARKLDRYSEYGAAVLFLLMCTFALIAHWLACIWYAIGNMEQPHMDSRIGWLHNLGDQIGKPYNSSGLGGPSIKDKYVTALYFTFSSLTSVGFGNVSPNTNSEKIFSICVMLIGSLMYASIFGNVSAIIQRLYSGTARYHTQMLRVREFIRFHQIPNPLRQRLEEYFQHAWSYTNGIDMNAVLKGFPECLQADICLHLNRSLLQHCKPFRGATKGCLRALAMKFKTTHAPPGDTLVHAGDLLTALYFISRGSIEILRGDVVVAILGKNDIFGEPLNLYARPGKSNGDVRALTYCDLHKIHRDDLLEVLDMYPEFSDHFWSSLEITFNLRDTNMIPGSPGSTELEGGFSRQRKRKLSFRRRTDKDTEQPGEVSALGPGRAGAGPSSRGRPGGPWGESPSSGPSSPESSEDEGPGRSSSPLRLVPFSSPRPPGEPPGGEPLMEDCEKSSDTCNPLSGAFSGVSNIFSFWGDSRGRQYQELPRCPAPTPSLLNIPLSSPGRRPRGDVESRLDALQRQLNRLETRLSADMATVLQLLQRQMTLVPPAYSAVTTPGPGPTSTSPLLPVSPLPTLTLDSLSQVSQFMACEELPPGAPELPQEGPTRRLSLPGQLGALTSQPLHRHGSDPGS

As to `O=c1oc2cc(O)ccc2c2oc3ccc4c(c3c12)CN(C1CCCC1)CO4`, the 50% inhibitory concentration (IC50) in test [1] worked out at 0.52 µM; in test [2], 1.3 µM.
In the case of `O=c1oc2cc(O)ccc2c2oc3ccc(O)c(CN4CCCCC4)c3c12`, the IC50 in test [1] was greater than 30 µM.
In test [2], `O=c1oc2cc(O)ccc2c2oc3ccc(O)c(CN4CCC(F)CC4)c3c12` came in with an IC50 of 1.55 µM.
